According to patent US20050227982A1, “Antileishmanial dinitroaniline sulfanomides with activity against parasite tubulin” (priority 2002, published 2005):
Where two headings read alike, the source gives them in different places.

Experiments:
[1] = tested on: L. donovani promastigotes; assay: Growth inhibition of L. donovani promastigotes; assay type: cell-based, Leishmania donovani; conditions: for IC50: read-out: IC50 vs. L. donovani promastigotes
[2] = tested on: leishmanial tubulin; assay type: biochemical; conditions: mean ± SD of at least one duplicate measurement, SD of controls 27.6%
Procedure: (§1) 2000, 110, 223-236, incorporated herein by reference.^14
Briefly, the tubulin assembly assays are performed as follows. […] The change in turbidity was measured at 351 nm using the SpectraMax Plus microplate reader immediately after GTP addition at 30° C. (for leishmanial tubulin) or 37° C. (for brain tubulin).

[3] = tested on: T. b. brucei Lab 110 EATRO; assay: In vitro sensitivity of T. b. brucei Lab 110 EATRO (Coulter counter, two-day); assay type: cell-based, Trypanosoma brucei brucei; conditions: Trypanosoma brucei, 48 h, read-out: IC50, T. b. brucei Lab 110 EATRO
Procedure: (§2) Determination of the drug susceptibility of parasites and mammalian cells. The susceptibility of Leishmania donovani amastigote-like parasites (WHO designation: MHOM/SD/62/1S-CL2D) to growth inhibition by compounds of interest was measured in a three-day assay using the tetrazolium dye-based CellTiter reagent (Promega) (Werbovetz, K., Brendle, J., and Sackett, D. (1999) Mol. Biochem. Parasitol. 98, 53-65., and Havens, C., Bryant, N., Asher, L., Lamoreaux, L., Perfetto, S., Brendle, J., and Werbovetz, K. (2000) Mol. Biochem. Parasitol. 110, 223-236). The amastigote medium used in this assay is based on the medium mentioned by Joshi et al. (Joshi, M., Dwyer, D. M., and Nakhasi, H. L. (1993) Mol. Biochem. Parasitol. 58, 345-354). Prior to addition of fetal bovine serum to a final concentration of 20%, this amastigote medium contains 15 mM KCl, 115 mM KH2PO4, 10 mM K2HPO4, 0.5 mM MgSO4, 24 mM NaHCO3, a 1-concentration of RPMI-1640 vitamins and amino acids, 2.0 mM L-glutamine, 22 mM D-glucose, 100 units/mL penicillin, 100 ∝g/ml streptomycin, 0.1 mM adenosine, 1 ∝g/mL folate, and 25 mM MES (pH 5.5). Compounds were tested for their activity against bloodstream-form Trypanosoma brucei brucei (MITat 1.2, variant 221) axenically-cultured in HMI-9 medium , H., and Hirumi, K. (1989) J. Parasitol. 75, 985-989.) following the procedure of Ellis et al. (Ellis, J., Fish, W., Sileghem, M., and McOdimba, F. (1993) Vet. Parasitol. 50, 143-149.) with some modifications. Briefly, 100 μL of late log phase parasites were incubated in 96-well plates (Costar) at an initial concentration of 10^5 cells/ml with or without test compounds at 37° C. in a humidified 5% CO2 atmosphere for 72 hours. Twenty-five μL of a 5 mg/mL solution of MTT (prepared in phosphate buffered saline and filter sterilized) was then added to each well and plates were re-incubated at 37° C. as before for 2 h. One hundred ∝L of 20% SDS lysis buffer (prepared in 50% aqueous DMF) was added to each well and plates were incubated as before for an additional 3-4 h. Optical densities were then measured at 570 nm using SpectraMax Plus microplate reader. […] Assessment of the in vitro sensitivity of T. b. brucei Lab 110 EATRO and P. falciparum strains to compounds was performed by methods described in Donkor et al. (Donkor, I., Assefa, H., Rattendi, D., Lane, S., Vargas, M., Goldberg, B., and Bacchi, C. (2001) Eur. J. Med. Chem. 36, 531-538.) and Guan et al. (Guan, J., Kyle, D., Gerena, L., Zhang, Q., Milhous, W., and Lin, A. (2002) J. Med. Chem. 45, 2741-2748).

[4] = tested on: P. falciparum D6 strain; assay: In vitro sensitivity of P. falciparum D6 strain (tritiated hypoxanthine uptake); assay type: cell-based, Plasmodium falciparum; conditions: Plasmodium falciparum, D6, read-out: IC50, P. falciparum D6 strain
Procedure: as §2

[5] = tested on: J774 murine macrophages; assay: Toxicity to J774 macrophages (three-day CellTiter assay); assay type: cell-based
Procedure: (§3) The toxicity of compounds to J774 murine macrophages and PC3 […] cells was measured in a three-day assay using the CellTiter reagent. […] Macrophages were allowed to adhere for 24 hours, then the medium was removed and replaced with serial dilutions of the test compounds in the DMEM medium mentioned above without phenol red. After 72 hr incubation with the test compounds at 37° C. in a humidified 5% CO2 incubator, cell viability was determined using the CellTiter reagent by adding 20 μL of assay solution to each well. After a 6-7 h incubation at 37° C. to allow for color development, the absorbance of each well at 490 nm was measured in a SpectraMax Pro microplate reader (Molecular Devices). The toxicity of compounds to PC3 cells was assessed in the same manner as for the macrophages, except that the medium used was RPMI 1640 supplemented with 10% heat inactivated fetal calf serum, 2.0 mM L-glutamine, 50 units/mL penicillin, and 50 ∝g/mL streptomycin. IC50 values for the J774 and PC3 assays were determined with the software program SoftMax Pro as described earlier.

[6] = tested on: PC3 cells; assay: Toxicity to PC3 cells (three-day CellTiter assay); assay type: cell-based; conditions: Homo sapiens, PC-3, 72 h, read-out: IC50, PC3 prostate
Procedure: as §3

[7] = tested on: L. donovani promastigotes; assay: Flow cytometry of DNA content in L. donovani promastigotes; assay type: cell-based, Leishmania donovani; conditions: 10 μM compound
Procedure: Flow cytometry and fluorescence cell sorting. Parasites or J774 macrophages were incubated in T25 flasks (3-5 mL final volume) in the appropriate media described earlier for 24-48 h. Cultures contained 1% DMSO (v/v) in the presence or absence of test compounds. Cells were counted using a hemacytometer, then were centrifuged (1000×·g for parasites, 200×·g for macrophages) at 4° C. for 10 min (parasites) or 5 min (macrophages). Cells were resuspended in 150 μL of PBS (0.01 M phosphate, 0.137 M NaCl, and 2.7 mM KCl), then 350 μL of ice-cold methanol was added and the samples were fixed at −20° C. for 2-3 h. Cells were centrifuged as before and resuspended in PBS containing 0.1% TX-100, 5 μg/mL RNase A, and 10 μg/mL propidium iodide for 20-30 min. Centrifugation was repeated, then cells were resuspended in PBS to a final concentration of 5×10^5-10^6/mL and stored at 4° C. until analysis. Fluorescence cell sorting was conducted on a Beckman Coulter Elite flow cytometer.

[8] = tested on: Trypanosoma brucei brucei (MITat 1.2, variant 221); assay: microbe, parasite or virus in culture; assay type: cell-based; conditions: read-out: IC50, T. b. brucei variant 221
Procedure: as §2

[9] = tested on: P. falciparum W2 strain; assay: microbe, parasite or virus in culture; assay type: cell-based, Plasmodium falciparum; conditions: Plasmodium falciparum, W2, read-out: IC50, P. falciparum W2 strain
Procedure: as §2

[10] = tested on: L. donovani axenic amastigotes; assay: Growth inhibition of L. donovani axenic amastigotes (three-day tetrazolium dye assay); assay type: cell-based, Leishmania donovani
Procedure: as §1, §2

[11] = mean ± standard deviation of at least two independent measurements
[12] = unit inferred, read-out: IC50, J774 macrophages
[13] = unit inferred, three-day tetrazolium dye assay, read-out: IC50, L. donovani axenic amastigotes

Q: Which IC50 [1, 11] does the source give for `CCCN(CCC)c1c([N+](=O)[O-])cc(C#N)cc1[N+](=O)[O-]` [Compound 27] here?
A: > 100 µM

Q: What about the “% Inhibition of Leishmanial Tubulin Assembly at 20 μM Compound” value (“% Inhibition” for short) [2] of the same molecule?
A: 25 ± 17%

Q: Which IC50 [3] does the source give for `CCCN(CCC)c1c([N+](=O)[O-])cc(S(=O)(=O)Nc2ccccc2)cc1[N+](=O)[O-]` [Compound 20, N1-Phenyl-3,5-dinitro-N4,N4-di-n-propylsulfonilamide] here?
A: 0.58 µM

Q: And the IC50 [4]?
A: 11 µM

Q: What about the melting point of the same molecule?
A: 120 °C

Q: And the IC50 ([1]; Leishmania donovani)?
A: 14.7 ± 1 µM

Q: And the “fold more active than 3 against promastigotes” value ([1]; relative to oryzalin 3)?
A: 3.0 fold

Q: And the IC50 ([5]; Mus musculus, J774, read-out: IC50, J774 macrophages)?
A: 28.3 ± 3.8 µM

Q: What about the IC50 ([5]; read-out: IC50, J774 macrophages) of the same molecule?
A: 30.8 ± 1.9 µM

Q: What about the IC50 [6] of the same molecule?
A: 41.3 ± 8.5 µM

Q: What about the “effect on cell cycle / DNA content by flow cytometry” value ([7]; 48 hour treatment of promastigotes) of the same molecule?
A: appearance of parasites containing approximately 4×, 8×, and 16× more DNA

Q: And the “parasite cell density over 48 hours” value ([7]; control cultures doubled approximately three times)?
A: remained at the same cell density

Q: And the IC50 ([8]; Trypanosoma brucei, 72 h)?
A: 0.412 ± 0.044 µM

Q: And the IC50 ([8]; Trypanosoma brucei)?
A: 0.4 µM

Q: What about the IC50 [9] of the same molecule?
A: 13 µM

Q: And the “fold more active than 3 against L. donovani axenic amastigotes” value [10]?
A: 13.4 fold

Q: And the IC50 ([10]; Leishmania donovani, 72 h, read-out: IC50, L. donovani axenic amastigotes)?
A: 5.03 ± 1.08 µM

Q: And the IC50 ([10]; Leishmania donovani, read-out: IC50 vs. L. donovani amastigotes)?
A: 5.41 ± 0.89 µM

Q: And the “% Inhibition” value [2]?
A: 108 ± 7%

Q: Which results are given for `CCCCN(CCCC)c1c([N+](=O)[O-])cc(S(=O)(=O)Nc2ccccc2)cc1[N+](=O)[O-]` [Compound 32, N1-Phenyl-3,5-dinitro-N4,N4-di-n-butylsulfonilamide]?
A: IC50 [5, 12]: 11.9 ± 0.5 µM; IC50 ([8]; unit inferred): 0.1 µM; IC50 [10, 13]: 2.57 ± 0.25 µM

Q: Which IC50 [1, 11] does the source give for `NS(=O)(=O)c1cc([N+](=O)[O-])c(N2CCCC2)c([N+](=O)[O-])c1` [Compound 19] here?
A: 97.1 ± 53 µM

Q: And the “% Inhibition” value [2]?
A: 57 ± 18%

Q: What does the source list for `CCCN(CCC)c1c([N+](=O)[O-])cc(C(N)=NO)cc1[N+](=O)[O-]` [Compound 29]?
A: IC50 [1, 11]: > 100 µM; % Inhibition of Leishmanial Tubulin Assembly at 20 μM Compound [2]: 35 ± 7%

Q: Which IC50 [5, 12] does the source give for `CCCN(CCC)c1c([N+](=O)[O-])cc(S(=O)(=O)Nc2ccc(C)cc2)cc1[N+](=O)[O-]` [Compound 40, N1-(4Methyl)phenyl-3,5-dinitro-N4,N4-di-n-propylsulfonilamide] here?
A: 10.5 ± 2 µM

Q: What about the IC50 ([8]; unit inferred) of the same molecule?
A: 10.5 µM

Q: What about the IC50 [10, 13] of the same molecule?
A: 32.1 ± 12.7 µM
